Laboratory results: PMC12621184, “Synthesis and Pharmacological Characterization of Nociceptin/Orphanin FQ Dimeric Ligands” (Journal of Medicinal Chemistry, 2025)
Where “and” joins values, the source holds several entries; their conditions need not be identical. Equal values may be shown once. Bridge positions count the residues as written; N and C are the ends. Peptide text beside a SMILES is read from it. I, II: the chains in the order shown.

Experiments:
[1] = system: mouse vas deferens from NOP(+/+) mice; test: Electrically stimulated mouse vas deferens bioassay, NOP(+/+) tissues
Description: This study was approved by the Animal Welfare Body of the University of Ferrara and by the Italian Ministry of Health (authorization number CBCC2.N.BXI). Experiments were performed on an isolated mouse vas deferens. All experiments were conducted with mice bred and housed in the University of Ferrara’s animal facility under specific pathogen-free conditions (SPF). All mice were housed in cages with individual ventilation, with a constant temperature of 21 °C, 60% humidity, and a 12 h light/dark cycle. Food and water were provided ad libitum. CD-1 NOP(+/+) and CD-1 NOP(−/−) male mice, aged 9 to 12 months, were used. Animals were sacrificed on the day of the experiment with CO2 overdose. Bioassay experiments were performed as previously described. The tissues were suspended in 5 mL organ bath containing Krebs solution (NaCl 118.5 […]). The Krebs solution was oxygenated with 95% O2 and 5% CO2 and the temperature set at 33 °C with a resting tension of 0.3 g applied to the tissues. Tissues were stimulated through two platinum electrodes with a supramaximal rectangular pulse of 1 ms duration, 0.05 Hz frequency, and 80 V of amplitude. The electrically evoked contractions were measured isotonically by means of Basile strain gauge transducers (Basile, IT) and a recorder with a Power Lab 8 instrument (ADInstruments, CO, U.S.). Following an equilibration period of approximately 60 min, the contractions induced by electrical field stimulation were stable. At this time, cumulative concentration response curves were carried out.
(§1) Concentration-response curves to agonists were analyzed by a four-parameter logistic nonlinear regression model: Effect = baseline + (E max – baseline)/(1 + 10^((logEC50–log[ligand])slope)). […] Experimental data were expressed as mean ± sem of at least 5 experiments. Potency values were expressed as the mean and CL95%. In vitro E max values were analyzed by one-way ANOVA, while in vivo latency data were evaluated by one-way ANOVA followed by Dunnett’s post hoc test. The proportion of mice losing the righting reflex was compared by Fisher’s exact test performed on raw data. GraphPad Prism 10.0 software was used for all of the analyses. The terminology employed is consistent with the International Union of Basic and Clinical Pharmacology (IUPHAR) recommendations. ,

[2] = biological target: human NOP (Homo sapiens, UniProt P41146); test: NOP receptor–G protein interaction BRET assay; type: biochemical; design: expressed in transfected cells; host or cells: membranes of HEK293 cells stably coexpressing NOP-RLuc and Gβ1-RGFP; settings: N = 5 experiments in duplicate
Description: A BRET interaction assay was used, as previously detailed in ref , to study the propensity of ligands to evoke interaction between the NOP receptor and to G protein. Membranes taken from HEK293 cells stably coexpressing the fusoproteins NOP-RLuc and Gβ1-RGFP were used. Such cells were grown in DMEM medium supplemented with 10% FBS, 2 mM L-glutamine, […] G418, […] hygromycin B, 100 IU/mL penicillin, and 100 IU/mL streptomycin in a humidified atmosphere with 5% CO2 at 37 °C. Cell membranes were thawed and resuspended in PBS supplemented with 0.01% BSA before the assay, and an amount of 3 μg of total protein was dispensed in each of the 96 wells together with 2 μM Prolume Purple Coelenterazine. All experiments were carried out at room temperature. Ligands were added, and averaged BRET ratios from 10 min measurements were computed. BRET ratios were computed as counts per second (CPS) obtained on a Victor Nivo (PerkinElmer) with 405 (10) nm and 510 (30) nm bandpass filters. Vehicles’ BRET ratios were derived from light passed through 510 divided by that passed through 405 filters. Vehicles BRET values were subtracted from all computations, and data sets were normalized as a fraction of N/OFQ maximal effects.
as §1

## C[C@H](NC(=O)CNC(=O)[C@@H](NC(=O)[C@H](Cc1ccccc1)NC(=O)CNC(=O)CNC(=O)[C@@H](N)Cc1ccccc1)[C@@H](C)O)C(=O)N[C@@H](CCCNC(=N)N)C(=O)N[C@@H](CCCCN)C(=O)N[C@@H](CO)C(=O)N[C@@H](C)C(=O)N[C@@H](CCCNC(=N)N)C(=O)N[C@@H](CCCCN)C(=O)N[C@@H](CSSC[C@H](NC(=O)[C@H](CCCCN)NC(=O)[C@H](CCCNC(=N)N)NC(=O)[C@H](C)NC(=O)[C@H](CO)NC(=O)[C@H](CCCCN)NC(=O)[C@H](CCCNC(=N)N)NC(=O)[C@H](C)NC(=O)CNC(=O)[C@@H](NC(=O)[C@H](Cc1ccccc1)NC(=O)CNC(=O)CNC(=O)[C@@H](N)Cc1ccccc1)[C@@H](C)O)C(=O)N[C@@H](C)C(=O)N[C@@H](CC(N)=O)C(=O)N[C@@H](CCC(N)=O)C(N)=O)C(=O)N[C@@H](C)C(=O)N[C@@H](CC(N)=O)C(=O)N[C@@H](CCC(N)=O)C(N)=O [1h, [[Cys^14]N/OFQ-NH2]2] (I: H-FGGFTGARKSARKCANQ-NH2 / II: H-FGGFTGARKSARKCANQ-NH2; disulfide I:14-II:14; N-terminus assumed)
[1]; mVD from CD-1 NOP(+/+) mice, 33 °C, mean (CL95%), 5 experiments
  potency (pEC50) for inhibition of electrically induced contractions: 6.79 (6.02–7.56)
[1]; mVD, vs N/OFQ
  decrease in mVD potency compared to N/OFQ: approximately 3 fold
[1]; onset and reversibility upon washout
  kinetics of action in mVD (in words): fully and rapidly reversible upon washout
[2]; effects normalized to N/OFQ-NH2 (E max = 1), mean ± sem
  NOP–G protein interaction E max ± sem: 0.80 ± 0.08
[2]; membranes from HEK293 cells coexpressing NOP-RLuc and Gβ1-RGFP, room temperature, mean (CL95%), read-out: NOP–G protein interaction pEC50 (CL95%) (converted)
  EC50: < 1 nM and 0.123 nM
